Assay [1] relates to radiation proctopathy. The following applies: topical; cited from earlier work.
The subject of assay [2] is radiation-induced anal ulceration. The assay can be described thus: case of patient with AIDS and anal carcinoma with radiation-induced anal ulceration, oral vitamin A. The following applies: single patient. Type of assay: in vivo, human. The text has this: (§1) The present inventor recently described a dramatic case of the patient with AIDS and anal carcinoma with developed a large radiation-induced anal ulceration with marked debility. The patient required high dose opioid therapy for control of anal pain. […] Radiation proctopathy is a form of injury of the rectum from radiation therapy administered for pelvic cancers such as cancers of the prostate, uterus and ovary. The present inventor recently designed, conducted and published a randomized double-blinded trial comparing vitamin A in the form of retinol palmitate (10,000 IU by mouth for 90 days) to placebo in patients with radiation proctopathy. […] The other form of vitamin A, (beta carotene), when applied topically, have the potential to enhance the effectiveness of retinol palmitate for treating radiation proctopathy and other anorectal disorders.

In the next assay the test system is wound healing. The following applies: following burn injury and surgeries; cited from earlier work.
Assay [3] relates to radiation proctopathy. The assay is described as follows: randomized double-blinded trial of vitamin A versus placebo in patients with radiation proctopathy. The format is in vivo, human. The following applies: retinol palmitate 10,000 IU by mouth for 90 days versus placebo.
Description: as §1

As to `Nc1ccc(O)c(C(=O)O)c1` [5-ASA, 5-aminosalicylic acid], the “efficacy for radiation proctopathy” value in the assay with radiation proctopathy [1] is “appear to be ineffective”.

As for `CCCCCCCCCCCCCCCC(=O)OC/C=C(C)/C=C/C=C(C)/C=C/C1=C(C)CCCC1(C)C` [vitamin A, retinol palmitate], in assay [2] (after twelve week oral course), the “persistence of healing and symptomatic relief” value is given as “persisted for more than six months”. In addition, the “wound healing and symptoms” value in assay [2] (twelve week course, orally administered retinol palmitate) is “complete wound healing and symptomatic relief”. Further, the wound healing result with wound healing is recorded as “accelerate wound healing”. Also, the “rectal symptoms of radiation proctopathy” value in the assay on radiation proctopathy [3] was “significantly reduced rectal symptoms”.

Regarding sucralfate, the “efficacy for radiation proctopathy” value in the assay on radiation proctopathy [1] is “appear to be ineffective”.

Values taken from patent US7250445B1, “Anti-oxidant suppository for treating radiation proctopathy and other anorectal disorders” (priority 2005, dated 2007).
